Results taken from article PMC8213057, “Targeting ALK2: An Open Science Approach to Developing Therapeutics for the Treatment of Diffuse Intrinsic Pontine Glioma” (Journal of Medicinal Chemistry, 2020).
Values joined by “and” are separate entries in the source; they are usually repeats but may differ in a detail not shown here. Equal entries are not always repeated.

Columns and labels:
[1] = target: T1, TSSK2 (Homo sapiens, UniProt Q96PF2); experiment: biochemical; details: read-out: % enzyme activity, 1 μM; Run 1, Run 2
T1 sequence (Q96PF2 1-358): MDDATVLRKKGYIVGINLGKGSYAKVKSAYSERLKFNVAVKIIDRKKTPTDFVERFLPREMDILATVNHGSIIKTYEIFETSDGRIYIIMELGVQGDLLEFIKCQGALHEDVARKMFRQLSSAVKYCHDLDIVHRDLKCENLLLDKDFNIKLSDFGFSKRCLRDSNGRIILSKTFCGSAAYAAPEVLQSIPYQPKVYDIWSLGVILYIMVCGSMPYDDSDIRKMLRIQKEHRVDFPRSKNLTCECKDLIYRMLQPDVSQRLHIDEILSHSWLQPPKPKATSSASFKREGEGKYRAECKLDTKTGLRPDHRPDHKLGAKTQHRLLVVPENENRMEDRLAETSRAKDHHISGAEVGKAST

[2] = target: PKN2/PRK2 (Homo sapiens, UniProt Q16513); details: 1 μM; Run 1, Run 2
[3] = target: MSK1/RPS6KA5 (Homo sapiens, UniProt O75582); experiment: biochemical; details: read-out: % enzyme activity, 1 μM; Run 1, Run 2
[4] = target: T2, VRK1 (Homo sapiens, UniProt Q99986); details: 1 μM; Run 1, Run 2
T2 sequence (Q99986 1-396): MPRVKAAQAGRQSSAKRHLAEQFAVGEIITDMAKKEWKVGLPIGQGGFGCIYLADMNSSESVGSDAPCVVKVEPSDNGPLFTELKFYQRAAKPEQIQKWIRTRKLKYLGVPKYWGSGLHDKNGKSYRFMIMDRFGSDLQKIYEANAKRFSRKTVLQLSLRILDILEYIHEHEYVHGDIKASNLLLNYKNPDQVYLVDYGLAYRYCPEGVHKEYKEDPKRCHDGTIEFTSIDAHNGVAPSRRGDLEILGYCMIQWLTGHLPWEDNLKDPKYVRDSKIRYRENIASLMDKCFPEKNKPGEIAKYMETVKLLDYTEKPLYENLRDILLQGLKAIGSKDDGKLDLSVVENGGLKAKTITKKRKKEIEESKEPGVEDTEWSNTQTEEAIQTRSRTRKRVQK

[5] = target: T3, CAMK2b (Homo sapiens, UniProt Q13554); experiment: biochemical; details: read-out: % enzyme activity, 1 μM; Run 1, Run 2
[6] = target: PKCg (Homo sapiens, UniProt P05129); experiment: biochemical; details: read-out: % enzyme activity, 1 μM; Run 1, Run 2
[7] = test system: FMS
[8] = target: CYP2D6
[9] = target: TYK1/LTK (Homo sapiens, UniProt P29376); details: 1 μM; Run 1, Run 2
[10] = target: T4, ULK3 (Homo sapiens, UniProt Q6PHR2); experiment: biochemical; details: read-out: % enzyme activity, 1 μM; Run 1, Run 2
T4 sequence (Q6PHR2 1-472): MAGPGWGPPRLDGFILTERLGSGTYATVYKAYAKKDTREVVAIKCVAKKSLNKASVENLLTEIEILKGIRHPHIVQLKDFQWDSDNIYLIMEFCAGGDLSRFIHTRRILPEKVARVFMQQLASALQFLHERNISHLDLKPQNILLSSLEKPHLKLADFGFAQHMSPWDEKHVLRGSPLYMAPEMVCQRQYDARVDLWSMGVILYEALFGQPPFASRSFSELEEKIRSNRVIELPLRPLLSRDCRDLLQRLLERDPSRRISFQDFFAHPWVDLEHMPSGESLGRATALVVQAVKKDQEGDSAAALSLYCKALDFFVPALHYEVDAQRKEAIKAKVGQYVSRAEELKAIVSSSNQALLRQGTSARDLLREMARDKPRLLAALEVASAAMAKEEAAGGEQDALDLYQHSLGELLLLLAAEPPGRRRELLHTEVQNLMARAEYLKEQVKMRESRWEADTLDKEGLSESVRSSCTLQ

[11] = target: T5, STK22D/TSSK1 (Homo sapiens, UniProt Q9BXA7); experiment: biochemical; details: read-out: % enzyme activity, 1 μM; Run 1, Run 2
T5 sequence (Q9BXA7 1-367): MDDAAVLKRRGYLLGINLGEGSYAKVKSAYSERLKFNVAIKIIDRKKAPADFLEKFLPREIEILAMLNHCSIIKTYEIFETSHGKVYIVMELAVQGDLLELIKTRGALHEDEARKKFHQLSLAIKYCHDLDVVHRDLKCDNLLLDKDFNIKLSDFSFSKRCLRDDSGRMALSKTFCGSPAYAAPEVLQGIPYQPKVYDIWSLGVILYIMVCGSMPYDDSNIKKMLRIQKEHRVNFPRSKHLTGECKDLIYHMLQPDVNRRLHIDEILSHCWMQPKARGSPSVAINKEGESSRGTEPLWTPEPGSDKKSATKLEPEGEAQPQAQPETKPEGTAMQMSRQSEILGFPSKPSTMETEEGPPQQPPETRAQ

[12] = target: T3, CAMK2b; details: 1 μM; Run 1, Run 2
[13] = target: RIPK2 (Homo sapiens, UniProt O43353); details: 1 μM; Run 1, Run 2
Sequence of RIPK2 (O43353 whole entry): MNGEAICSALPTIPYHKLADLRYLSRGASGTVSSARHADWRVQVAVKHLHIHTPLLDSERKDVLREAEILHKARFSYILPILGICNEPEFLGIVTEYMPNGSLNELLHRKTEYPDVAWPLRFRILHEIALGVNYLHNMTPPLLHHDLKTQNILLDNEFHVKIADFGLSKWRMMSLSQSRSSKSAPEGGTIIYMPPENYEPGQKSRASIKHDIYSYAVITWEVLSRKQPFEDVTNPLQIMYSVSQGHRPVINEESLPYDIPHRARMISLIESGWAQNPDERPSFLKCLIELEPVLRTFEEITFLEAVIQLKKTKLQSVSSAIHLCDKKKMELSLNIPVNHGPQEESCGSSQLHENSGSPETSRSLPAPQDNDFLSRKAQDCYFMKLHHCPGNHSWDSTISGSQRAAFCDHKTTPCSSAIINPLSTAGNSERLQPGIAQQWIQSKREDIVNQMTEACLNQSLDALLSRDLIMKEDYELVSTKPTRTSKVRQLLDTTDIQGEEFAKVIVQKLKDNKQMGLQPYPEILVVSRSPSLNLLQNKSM

T3 sequence (Q13554 whole entry): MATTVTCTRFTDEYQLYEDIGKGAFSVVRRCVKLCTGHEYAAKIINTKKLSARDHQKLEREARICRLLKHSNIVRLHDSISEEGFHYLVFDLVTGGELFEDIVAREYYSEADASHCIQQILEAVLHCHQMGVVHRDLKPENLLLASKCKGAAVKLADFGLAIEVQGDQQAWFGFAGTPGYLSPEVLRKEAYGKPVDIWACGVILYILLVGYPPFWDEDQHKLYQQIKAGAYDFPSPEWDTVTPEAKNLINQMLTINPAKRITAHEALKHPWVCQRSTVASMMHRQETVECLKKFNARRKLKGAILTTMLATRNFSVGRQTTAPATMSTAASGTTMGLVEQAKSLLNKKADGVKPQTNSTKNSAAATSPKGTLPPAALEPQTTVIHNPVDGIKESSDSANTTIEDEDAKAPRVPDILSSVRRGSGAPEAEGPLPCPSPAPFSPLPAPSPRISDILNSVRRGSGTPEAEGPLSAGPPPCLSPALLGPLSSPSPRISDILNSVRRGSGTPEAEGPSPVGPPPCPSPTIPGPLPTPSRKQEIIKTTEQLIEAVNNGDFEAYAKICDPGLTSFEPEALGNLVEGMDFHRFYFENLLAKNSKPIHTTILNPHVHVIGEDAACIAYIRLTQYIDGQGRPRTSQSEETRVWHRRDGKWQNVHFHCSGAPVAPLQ
Sequence of PKN2/PRK2 (Q16513 whole entry): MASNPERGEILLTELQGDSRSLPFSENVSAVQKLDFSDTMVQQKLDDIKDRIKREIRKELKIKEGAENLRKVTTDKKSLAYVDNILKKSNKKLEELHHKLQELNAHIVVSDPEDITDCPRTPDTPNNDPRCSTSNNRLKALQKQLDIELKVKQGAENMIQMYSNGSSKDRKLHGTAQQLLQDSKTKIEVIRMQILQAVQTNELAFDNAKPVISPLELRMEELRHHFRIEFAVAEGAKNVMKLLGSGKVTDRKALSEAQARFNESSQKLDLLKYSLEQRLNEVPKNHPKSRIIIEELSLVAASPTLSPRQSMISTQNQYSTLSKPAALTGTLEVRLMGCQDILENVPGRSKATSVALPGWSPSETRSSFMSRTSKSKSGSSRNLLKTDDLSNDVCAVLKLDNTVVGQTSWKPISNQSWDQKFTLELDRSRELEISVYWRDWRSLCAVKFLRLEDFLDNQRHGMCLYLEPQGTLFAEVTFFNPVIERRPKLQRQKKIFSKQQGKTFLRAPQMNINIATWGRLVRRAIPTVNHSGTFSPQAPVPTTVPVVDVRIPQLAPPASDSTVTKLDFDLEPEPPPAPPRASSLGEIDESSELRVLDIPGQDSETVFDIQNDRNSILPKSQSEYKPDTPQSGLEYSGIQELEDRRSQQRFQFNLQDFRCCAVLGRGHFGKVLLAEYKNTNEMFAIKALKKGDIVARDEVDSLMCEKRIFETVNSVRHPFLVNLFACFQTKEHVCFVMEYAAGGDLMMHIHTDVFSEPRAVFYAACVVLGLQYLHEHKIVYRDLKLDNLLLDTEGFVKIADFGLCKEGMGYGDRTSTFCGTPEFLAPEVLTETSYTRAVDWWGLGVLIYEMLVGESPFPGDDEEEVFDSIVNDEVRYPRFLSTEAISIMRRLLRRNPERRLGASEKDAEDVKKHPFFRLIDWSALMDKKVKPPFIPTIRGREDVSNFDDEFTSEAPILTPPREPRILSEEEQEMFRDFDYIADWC
Sequence of TYK1/LTK (P29376 17-864): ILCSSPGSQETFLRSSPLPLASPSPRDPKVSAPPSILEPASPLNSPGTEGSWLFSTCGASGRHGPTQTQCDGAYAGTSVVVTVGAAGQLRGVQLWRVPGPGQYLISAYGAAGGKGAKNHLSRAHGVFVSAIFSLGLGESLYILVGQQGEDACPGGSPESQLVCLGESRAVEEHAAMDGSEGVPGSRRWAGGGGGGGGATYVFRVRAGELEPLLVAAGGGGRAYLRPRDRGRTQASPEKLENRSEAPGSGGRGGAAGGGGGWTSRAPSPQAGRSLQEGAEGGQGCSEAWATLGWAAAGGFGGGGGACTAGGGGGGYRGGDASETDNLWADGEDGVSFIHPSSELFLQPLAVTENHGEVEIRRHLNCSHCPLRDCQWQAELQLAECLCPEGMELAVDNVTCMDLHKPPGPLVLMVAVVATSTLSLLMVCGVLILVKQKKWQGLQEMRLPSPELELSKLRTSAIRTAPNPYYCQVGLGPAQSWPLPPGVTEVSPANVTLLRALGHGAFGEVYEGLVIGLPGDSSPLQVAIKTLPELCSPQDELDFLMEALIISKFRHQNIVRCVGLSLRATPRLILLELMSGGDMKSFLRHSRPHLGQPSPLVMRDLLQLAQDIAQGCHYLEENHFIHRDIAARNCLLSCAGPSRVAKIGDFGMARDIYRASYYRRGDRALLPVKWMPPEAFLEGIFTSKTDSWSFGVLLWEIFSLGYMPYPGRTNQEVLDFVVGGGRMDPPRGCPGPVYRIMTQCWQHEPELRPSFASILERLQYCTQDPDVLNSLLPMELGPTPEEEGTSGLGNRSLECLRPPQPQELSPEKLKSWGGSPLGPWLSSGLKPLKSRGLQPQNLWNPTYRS
Sequence of MSK1/RPS6KA5 (O75582 whole entry): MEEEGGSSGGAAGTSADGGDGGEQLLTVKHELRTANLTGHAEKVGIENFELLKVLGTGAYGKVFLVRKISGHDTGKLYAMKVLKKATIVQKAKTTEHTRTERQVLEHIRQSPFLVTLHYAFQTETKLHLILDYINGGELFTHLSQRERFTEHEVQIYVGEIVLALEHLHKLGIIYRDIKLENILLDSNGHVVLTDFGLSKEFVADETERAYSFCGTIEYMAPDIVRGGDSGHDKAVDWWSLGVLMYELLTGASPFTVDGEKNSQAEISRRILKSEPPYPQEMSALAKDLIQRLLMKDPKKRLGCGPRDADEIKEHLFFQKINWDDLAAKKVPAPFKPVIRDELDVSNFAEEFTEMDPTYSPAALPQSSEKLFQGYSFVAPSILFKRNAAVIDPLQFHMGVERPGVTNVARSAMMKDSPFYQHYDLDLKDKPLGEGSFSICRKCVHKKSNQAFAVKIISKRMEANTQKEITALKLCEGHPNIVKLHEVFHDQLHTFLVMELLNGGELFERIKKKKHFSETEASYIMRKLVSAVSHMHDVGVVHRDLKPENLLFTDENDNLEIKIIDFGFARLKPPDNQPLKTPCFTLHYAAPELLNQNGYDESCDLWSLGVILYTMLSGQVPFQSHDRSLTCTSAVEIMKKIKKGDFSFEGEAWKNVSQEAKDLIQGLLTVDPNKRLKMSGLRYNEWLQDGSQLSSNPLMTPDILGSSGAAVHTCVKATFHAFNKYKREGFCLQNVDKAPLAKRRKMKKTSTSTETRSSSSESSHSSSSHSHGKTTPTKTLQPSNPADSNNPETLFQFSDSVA

## COc1cc(-c2cncc(-c3ccc(N4CCN(C)CC4)cc3)c2C)cc(F)c1C(N)=O [Compound 26a, 2-Fluoro-6-methoxy-4-(4-methyl-5-(4-(4-methylpiperazin-1-yl)phenyl)pyridin-3-yl)benzamide]
[1]
  remaining activity at 1 µM: 100%
[2]
  % enzyme activity: 91.84%
[3]
  remaining activity at 1 µM: 87.1%
[4]
  % enzyme activity: 100.69%
[5]
  remaining activity at 1 µM: 83.9%
[6]
  remaining activity at 1 µM: 97%
[7]
  % enzyme activity at 1 μM: 82.2% and 75.7%
[8]
  CYP inhibition: > 50 µM
[9]
  % enzyme activity: 99.76%
[10]
  remaining activity at 1 µM: 91.5%
[11]
  remaining activity at 1 µM: 97.5%
[12]
  % enzyme activity: 83.40%
[13]
  % enzyme activity: 66.31%

## COc1cc(-c2cncc(-c3ccc(N4C[C@@H](C)N(C)[C@@H](C)C4)cc3)c2C)cc(F)c1C(N)=O [Compound 26c, 2-Fluoro-6-methoxy-4-(4-methyl-5-(4-((3R,5S)-3,4,5-trimethylpiperazin-1-yl)phenyl)pyridin-3-yl)benzamide]
[1]
  remaining activity at 1 µM: 100%
[2]
  % enzyme activity: 95.77%
[3]
  remaining activity at 1 µM: 90.5%
[4]
  % enzyme activity: 98.74%
[5]
  remaining activity at 1 µM: 92.8%
[6]
  remaining activity at 1 µM: 97.2%
[7]
  % enzyme activity at 1 μM: 79.5% and 78.8%
[8]
  CYP inhibition: > 50 µM
[9]
  % enzyme activity: 99.99%
[10]
  remaining activity at 1 µM: 98.8%
[11]
  remaining activity at 1 µM: 101%
[12]
  % enzyme activity: 91.32%
[13]
  % enzyme activity: 89.10%
